{
  "source": "BindingDB's records for doi:10.1016/j.bmc.2010.11.049",
  "about": "(Bryn Mawr College, 2011)",
  "data": [
    {"assay": "Inhibition of HIV1 YU2 gp120 binding to CD4 expressing Cf2Th-CD4/CCR5 cells assessed as inhibition of viral infection after 48 hrs", "units": {"IC50": "µM"}, "values": [
      {"smiles": "O=C(NCCc1cnc[nH]1)Nc1ccc(Cl)c(Cl)c1", "note": "[1-(2-(1H-imidazol-5-yl)ethyl)-3-(3,4-dichlorophenyl)urea]", "IC50": "> 100"},
      {"smiles": "O=C(Nc1ccc(Cl)cc1)Nc1ncnc2nc[nH]c12", "note": "[1-(4-chlorophenyl)-3-(9H-purin-6-yl)urea]", "IC50": "> 100"},
      {"smiles": "CC1(C)CC(=NNC(=O)c2[nH]nc3c2CCCC3)CC(C)(C)N1", "note": "[2,2,6,6-tetramethyl-4-(2-(4,5,6,7-tetrahydro-1H-indazole-3-carbonyl)hydrazono)piperidinium]", "IC50": "> 100"},
      {"smiles": "CC1Sc2cc(C(=O)NC3CC(C)(C)NC(C)(C)C3)ccc2NC1=O", "note": "(configuration not stated) [2,2,6,6-tetramethyl-4-(2-methyl-3-oxo-3,4-dihydro-2H-benzo[b][1,4]thiazine-7-carboxamido)piperidinium]", "IC50": "> 100"},
      {"smiles": "O=C(COc1ccc(Cl)cc1)Nc1cc(=O)[nH]c(=O)[nH]1", "note": "[2-(4-chlorophenoxy)-N-(2,6-dioxo-1,2,3,6-tetrahydropyrimidin-4-yl)acetamide]", "IC50": "> 100"},
      {"smiles": "O=C(COc1ccc(Cl)cc1)Nc1ccc2[nH]c(=O)[nH]c2c1", "note": "[2-(4-chlorophenoxy)-N-(2-oxo-2,3-dihydro-1H-benzo[d]imidazol-5-yl)acetamide]", "IC50": "> 100"},
      {"smiles": "Cc1ccc(N(C)C)cc1NC(=O)COc1ccc(Cl)cc1", "note": "[2-(4-chlorophenoxy)-N-(5-(dimethylamino)-2-methylphenyl)acetamide]", "IC50": "> 100"},
      {"smiles": "O=C(COC(=O)c1n[nH]c2ccccc12)Nc1ccc(Cl)cn1", "note": "[2-(5-chloropyridin-2-ylamino)-2-oxoethyl 1H-indazole-3-carboxylate]", "IC50": "> 100"},
      {"smiles": "O=C(CN1CCCCCC1)Nc1ccc(Br)cc1", "note": "[2-(azepan-1-yl)-N-(4-bromophenyl)acetamide]", "IC50": "> 100"},
      {"smiles": "O=C(Nc1ccc2c(c1)C(=O)NC2=O)c1ccc(Cl)c(Cl)c1", "note": "[3,4-dichloro-N-(1,3-dioxoisoindolin-5-yl)benzamide]", "IC50": "> 100"},
      {"smiles": "O=C(Nc1ccnc(=O)[nH]1)c1sc2cc(Cl)ccc2c1Cl", "note": "[3,6-dichloro-N-(2-oxo-1,2-dihydropyrimidin-4-yl)benzo[b]thiophene-2-carboxamide]", "IC50": "> 100"},
      {"smiles": "Nc1ccc(C(=O)CC(=O)Nc2ccc(Cl)cc2)cc1", "note": "[3-(4-aminophenyl)-N-(4-chlorophenyl)-3-oxopropanamide]", "IC50": "> 100"},
      {"smiles": "CC1(C)CC(NC(=O)C(=O)Nc2ccc3cc[nH]c3c2)CC(C)(C)N1", "note": "[4-(2-(1H-indol-6-ylamino)-2-oxoacetamido)-2,2,6,6-tetramethylpiperidinium]", "IC50": "> 100"},
      {"smiles": "CCNC(=S)N1CCN(CC(=O)Nc2ccc(Br)cc2)CC1", "note": "[4-(2-(4-bromophenylamino)-2-oxoethyl)-N-ethylpiperazine-1-carbimidothioic acid]", "IC50": "> 100"},
      {"smiles": "CC1(C)CC(NC(=O)C(=O)NCCc2ccc(Cl)cc2)CC(C)(C)N1", "note": "[4-(2-(4-chlorophenethylamino)-2-oxoacetamido)-2,2,6,6-tetramethylpiperidinium]", "IC50": "> 100"},
      {"smiles": "CN1CCCN(C(=O)COc2ccc(Cl)cc2)CC1", "note": "[4-(2-(4-chlorophenoxy)acetyl)-1-methyl-1,4-diazepan-1-ium]", "IC50": "> 100"},
      {"smiles": "CN1CCC(NC(=O)Nc2ccc(Cl)cc2Cl)CC1", "note": "[4-(3-(2,4-dichlorophenyl)ureido)-1-methylpiperidinium]", "IC50": "> 100"},
      {"smiles": "C[C@@H]1CN(CCC(=O)Nc2ccc(Br)cc2)C[C@H](C)O1", "note": "[(2R,6S)-4-(3-(4-bromophenylamino)-3-oxopropyl)-2,6-dimethylmorpholin-4-ium]", "IC50": "> 100"},
      {"smiles": "CCOC(=O)[C@H]1CCCN(CCC(=O)Nc2ccc(Br)cc2)C1", "note": "[(3S)-1-(3-(4-bromophenylamino)-3-oxopropyl)-3-(ethoxycarbonyl)piperidinium]", "IC50": "> 100"},
      {"smiles": "C[C@H]1CCCN(CCC(=O)Nc2ccc(Cl)cc2)C1", "note": "[(3S)-1-(3-(4-chlorophenylamino)-3-oxopropyl)-3-methylpiperidinium]", "IC50": "> 100"},
      {"smiles": "C[C@@H](Sc1nc(N)cc(=O)[nH]1)C(=O)Nc1ccc(Cl)cc1", "note": "[(R)-2-(6-amino-4-oxo-1,4-dihydropyrimidin-2-ylthio)-N-(4-chlorophenyl)propanamide]", "IC50": "> 100"},
      {"smiles": "O=C(NC[C@@H]1COC2(CCCC2)O1)C(=O)Nc1ccc(Cl)cc1", "note": "[(R)-N1-(1,4-dioxaspiro[4.4]nonan-2-ylmethyl)-N2-(4-chlorophenyl)oxalamide]", "IC50": "> 100"},
      {"smiles": "O=C(Nc1ccc(Cl)c(F)c1)C(=O)N[C@@H]1CCN(Cc2ccccc2)C1", "note": "[(R)-N1-(1-benzylpyrrolidin-3-yl)-N2-(4-chloro-3-fluorophenyl)oxalamide]", "IC50": 58.5},
      {"smiles": "CC1(C)NC(=O)N(C[C@H](O)COc2ccc(Cl)cc2)C1=O", "note": "[(S)-3-(3-(4-chlorophenoxy)-2-hydroxypropyl)-5,5-dimethylimidazolidine-2,4-dione]", "IC50": "> 100"},
      {"smiles": "O=C(Nc1ccc(Cl)c(F)c1)C(=O)N[C@H]1CCN(Cc2ccccc2)C1", "note": "[(S)-N1-(1-benzylpyrrolidin-3-yl)-N2-(4-chloro-3-fluorophenyl)oxalamide]", "IC50": "> 100"},
      {"smiles": "COc1cccc(N[C@@H](C)C(=O)Nc2ccc(Br)cc2)c1", "note": "[(S)-N-(4-bromophenyl)-2-(3-methoxyphenylamino)propanamide]", "IC50": "> 100"},
      {"smiles": "C[C@H](Sc1nc(N)cc(N)n1)C(=O)Nc1ccc(Cl)cc1", "note": "[(S)-N-(4-chlorophenyl)-2-(4,6-diaminopyrimidin-2-ylthio)propanamide]", "IC50": "> 100"},
      {"smiles": "CC1(C)OC(=O)N(CCC(=O)Nc2ccc(Cl)cc2)[C@@]1(C)O", "note": "[(S)-N-(4-chlorophenyl)-3-(4-hydroxy-4,5,5-trimethyl-2-oxooxazolidin-3-yl)propanamide]", "IC50": "> 100"},
      {"smiles": "O=C(Nc1ccc(Cl)c(F)c1)C(=O)NC1CCN(C(=O)c2ccccc2)CC1", "note": "[N1-(1-benzoylpiperidin-4-yl)-N2-(4-chloro-3-fluorophenyl)oxalamide]", "IC50": "> 100"},
      {"smiles": "CC1(C)CC(NC(=O)C(=O)Nc2c[nH]c3ncccc23)CC(C)(C)N1", "note": "[N1-(1H-pyrrolo[2,3-b]pyridin-3-yl)-N2-(2,2,6,6-tetramethylpiperidin-4-yl)oxalamide]", "IC50": "> 100"},
      {"smiles": "CC1(C)CC(NC(=O)C(=O)Nc2ccc(Cl)cc2Cl)CC(C)(C)N1", "note": "[N1-(2,4-dichlorophenyl)-N2-(2,2,6,6-tetramethylpiperidin-4-yl)oxalamide]", "IC50": "> 100"},
      {"smiles": "CC1(C)CC(NC(=O)C(=O)Nc2ccc(Cl)cc2OCc2ccccc2)CC(C)(C)N1", "note": "[N1-(2-(benzyloxy)-4-chlorophenyl)-N2-(2,2,6,6-tetramethylpiperidin-4-yl)oxalamide]", "IC50": "> 100"},
      {"smiles": "CC(C)c1ccccc1NC(=O)C(=O)NC1CC(C)(C)NC(C)(C)C1", "note": "[N1-(2-isopropylphenyl)-N2-(2,2,6,6-tetramethylpiperidin-4-yl)oxalamide]", "IC50": "> 100"},
      {"smiles": "CC1(C)CC(NC(=O)C(=O)Nc2ccc(Cl)c(OCc3ccccc3)c2)CC(C)(C)N1", "note": "[N1-(3-(benzyloxy)-4-chlorophenyl)-N2-(2,2,6,6-tetramethylpiperidin-4-yl)oxalamide]", "IC50": "> 100"},
      {"smiles": "CC1(C)CC(NC(=O)C(=O)Nc2cccc(OCc3ccccc3)c2)CC(C)(C)N1", "note": "[N1-(3-(benzyloxy)phenyl)-N2-(2,2,6,6-tetramethylpiperidin-4-yl)oxalamide]", "IC50": "> 100"},
      {"smiles": "CC(C)c1cccc(NC(=O)C(=O)NC2CC(C)(C)NC(C)(C)C2)c1", "note": "[N1-(3-isopropylphenyl)-N2-(2,2,6,6-tetramethylpiperidin-4-yl)oxalamide]", "IC50": "> 100"},
      {"smiles": "CC1(C)CC(NC(=O)C(=O)Nc2ccc(-n3cc(CCCCCO)nn3)cc2)CC(C)(C)N1", "note": "[N1-(4-(4-(5-hydroxypentyl)-1H-1,2,3-triazol-1-yl)phenyl)-N2-(2,2,6,6-tetramethylpiperidin-4-yl)oxalamide]", "IC50": "> 100"}
    ]}
  ]
}
